Experimental data as given in patent US9840478B2 (MERCK SHARP & DOHME CORP., priority 2013, dated 2017).

Each molecule was assayed on HIV-1 (H9IIIB strain) (assay: Cell-based HIV infection assay using a reporter (Cell-Based), MT4-GFP cells). Conditions: Human immunodeficiency virus 1, MT4-GFP cells infected with HIV-1 H9IIIB; 50% normal human serum; mean of at least two independent experiments; read-out: Cell-based IP.
Experimental: Cell-Based HIV Infection Assay Using a Reporter (“Cell-Based”):
MT4-GFP cells contain a stably integrated HIV long terminal repeat promoter directing the transcription of green fluorescent protein (GFP). When HIV infects the cell, GFP is produced and the cell becomes green. MT4-GFP cells (250,000 cells/ml) were bulk-infected with HIV-1 (H9IIIB strain) at low multiplicity of infection (MOI) in RPMI media, supplemented with 10% FBS for 24 hours. Cells were then washed once in RPMI plus 10% FBS and resuspended in RPMI plus 50% normal human serum (NHS). Test compounds were serial-diluted in DMSO using an ECHO liquid dispenser. A control well included a combination of three HIV drugs (an inhibitor of HIV protease, integrase strand transfer and a non-nucleoside reverse transcriptase inhibitor; triple drug). The infected MT4-GFP cells were added to a 384-well poly-D-lysine coated black plate with clear bottom in which the diluted test compounds were placed. The cells were seeded in the plate at 8,000 cells per well and the final DMSO concentration was 0.4%. Infected cells were quantified at both 24 and 48 hours post incubation using an Acumen eX3 plate reader. Viral reproductive ratio (R0) was determined using the number of infected cells at 48 hours divided by the number of infected cells at 24 hours. Percent viral growth inhibition was calculated by [1−(R−Rtripledrug)/(RDMSO−Rtripledrug)]*100. Compound potency IP or IC50 was determined with use of a 4-parameter dose response curve analysis.

| SMILES | IC50 |
| --- | --- |
| N[C@@H](Cc1ccc(F)cc1)C(=O)Nc1cncc(F)c1CC[C@H]1CNCCN1S(=O)(=O)C1CC1 [Example 47, N-(4-{2-[(2S)-1-(cyclopropylsulfonyl)piperazin-2-yl]ethyl}-5-fluoropyridin-3-yl)-4-fluoro-L-phenylalaninamide] | 1200 nM |
| COC(=O)N[C@H](C(=O)Nc1cncc(F)c1CC[C@H]1CNCCN1S(C)(=O)=O)[C@@H](c1ccc(F)cc1)c1cc(F)cc(F)c1 [Example 48, methyl ((1S,2S)-1-(3,5-difluorophenyl)-3-((5-fluoro-4-(2-((S)-1-(methylsulfonyl)piperazin-2-yl)ethyl)pyridin-3-yl)amino)-1-(4-fluorophenyl)-3-oxopropan-2-yl)carbamate] | 66 nM |
| COC(=O)N[C@H](C(=O)Nc1cncc(F)c1CC[C@@H]1CNCCN1S(C)(=O)=O)[C@@H](c1ccc(F)cc1)c1cc(F)cc(F)c1 [Example 49, methyl ((1S,2S)-1-(3,5-difluorophenyl)-3-((5-fluoro-4-(2-((R)-1-(methylsulfonyl)piperazin-2-yl)ethyl)pyridin-3-yl)amino)-1-(4-fluorophenyl)-3-oxopropan-2-yl)carbamate] | 1700 nM |
| COC(=O)N[C@H](C(=O)Nc1cncc(F)c1CC[C@H]1CNCCN1S(=O)(=O)C1CC1)[C@@H](c1ccc(F)cc1)c1cc(F)cc(F)c1 [Example 50, (βS)-N-(4-{2-[(2S)-1-(cyclopropylsulfonyl)piperazin-2-yl]ethyl}-5-fluoropyridin-3-yl)-3,5-difluoro-β-(4-fluorophenyl)-Nα-(methoxycarbonyl)-L-phenylalaninamide] | 21 nM |
| COC(=O)N[C@H](C(=O)Nc1cccc(F)c1CC[C@H]1CNCCN1S(=O)(=O)c1ccccc1)C(c1cc(F)cc(F)c1)c1cc(F)cc(F)c1 [Example 51, β-(3,5-difluorophenyl)-3,5-difluoro-N-(3-fluoro-2-{2-[(2S)-1-(phenylsulfonyl)piperazin-2yl]ethyl}phenyl)-Nα-(methoxycarbonyl)-L-phenylalaninamide] | 11 nM |
| COC(=O)N[C@H](C(=O)Nc1cccc(F)c1CC[C@H]1CNCCN1S(=O)(=O)c1ccccc1)[C@@H](c1ccc(Cl)cc1)c1cccc(F)c1 [Example 52, (βS)-4-chloro-β-(3-fluorophenyl)-N-(3-fluoro-2-{2-[(2S)-1-(phenylsulfonyl)piperazin-2-yl]ethyl}phenyl)-Nα-(methoxycarbonyl)-L-phenylalaninamide] | 9.2 nM |
| COC(=O)N[C@H](C(=O)Nc1cncc(F)c1CC[C@H]1CNCCN1S(=O)(=O)c1ccccc1)[C@@H](c1ccc(Cl)cc1)c1cccc(F)c1 [Example 53, (βS)-4-chloro-β-(3-fluorophenyl)-N-(5-fluoro-4-{2-[(2S)-1-(phenylsulfonyl)piperazin-2-yl]ethyl}pyridin-3-yl)-Nα-(methoxycarbonyl)-L-phenylalaninamide] | 6.5 nM |
| COC(=O)N[C@H](C(=O)Nc1cncc(F)c1CC[C@H]1CNCCN1S(=O)(=O)c1ccccc1)C(c1cccc(F)c1)c1cccc(F)c1 [Example 54, 3-fluoro-β-(3-fluorophenyl)-N-(5-fluoro-4-{2-[(2S)-1-(phenylsulfonyl)piperazin-2-yl]ethyl}pyridin-3-yl)-Nα-(methoxycarbonyl)-L-phenylalaninamide] | 9.8 nM |
| COC(=O)N[C@H](C(=O)Nc1cccc(F)c1CC[C@H]1CNCCN1S(=O)(=O)c1ccccc1)[C@@H](c1ccc(Cl)cc1)c1cncc(F)c1 [Example 55, (βS)-4-chloro-N-(3-fluoro-2-{2-[(2S)-1-(phenylsulfonyl)piperazin-2-yl]ethyl}phenyl)-β-(5-fluoropyridin-3-yl)-Nα-(methoxycarbonyl)-L-phenylalaninamide] | 9 nM |
| COC(=O)N[C@H](C(=O)Nc1cncc(F)c1CC[C@H]1CNCCN1S(=O)(=O)c1ccccc1)[C@@H](c1ccc(Cl)cc1)c1cccc(OC(F)(F)F)c1 [Example 56, (βS)-4-chloro-N-(5-fluoro-4-{2-[(2S)-1-(phenylsulfonyl)piperazin-2-yl]ethyl}pyridin-3-yl)-Nα-(methoxycarbonyl)-β-[3-(trifluoromethoxy)phenyl]-L-phenylalaninamide] | 13 nM |
| COC(=O)N[C@H](C(=O)Nc1cncc(F)c1CC[C@H]1CNCCN1S(=O)(=O)c1ccccc1)[C@@H](c1ccc(Cl)cc1)c1cc(F)cc(F)c1 [Example 57, (βS)-4-chloro-β-(3,5-difluorophenyl)-N-(5-fluoro-4-{2-[(2S)-1-(phenylsulfonyl)piperazin-2-yl]ethyl}pyridin-3-yl)-Nα-(methoxycarbonyl)-L-phenylalaninamide] | 7.7 nM |
| COC(=O)N[C@H](C(=O)Nc1cccc(F)c1CC[C@H]1CNCCN1S(=O)(=O)c1ccccc1)[C@@H](c1ccc(Cl)cc1)c1cccc(OC(F)(F)F)c1 [Example 58, (βS)-4-chloro-N-(3-fluoro-2-{2-[(2S)-1-(phenylsulfonyl)piperazin-2-yl]ethyl}phenyl)-Nα-(methoxycarbonyl)-β-[3-(trifluoromethoxy)phenyl]-L-phenylalaninamide] | 42 nM |
| COC(=O)N[C@H](C(=O)Nc1cccc(F)c1CC[C@H]1CNCCN1S(=O)(=O)c1ccccc1)[C@@H](c1ccc(Cl)cc1)c1cc(F)cc(F)c1 [Example 59, (βS)-4-chloro-β-(3,5-difluorophenyl)-N-(3-fluoro-2-{2-[(2S)-1-(phenylsulfonyl)piperazin-2-yl]ethyl}phenyl)-Nα-(methoxycarbonyl)-L-phenylalaninamide] | 29 nM |
| O=C(CC(c1ccc(F)cc1)c1ccc(F)cc1)Nc1cccc(F)c1CC[C@H]1CNCCN1S(=O)(=O)c1ccccc1 [Example 60, 3,3-bis(4-fluorophenyl)-N-(3-fluoro-2-{2-[(2S)-1-(phenylsulfonyl)piperazin-2-yl]ethyl}phenyl)propanamide] | 27 nM |
| O=C(CC(c1ccc(F)cc1)c1ccc(F)cc1)Nc1cccc(F)c1CC[C@@H]1CNCCN1S(=O)(=O)c1ccccc1 [Example 61, 3,3-bis(4-fluorophenyl)-N-(3-fluoro-2-{2-[(2R)-1-(phenylsulfonyl)piperazin-2-yl]ethyl}phenyl)propanamide] | 1200 nM |
| O=C(CC1(c2ccc(Cl)cc2)CCOCC1)Nc1cncc(F)c1CC[C@H]1CNCCN1S(=O)(=O)C1CC1 [Example 62, 2-[4-(4-chlorophenyl)tetrahydro-2H-pyran-4-yl]-N-(4-{2-[(2S)-1-(cyclopropylsulfonyl)piperazin-2-yl]ethyl}-5-fluoropyridin-3-yl)acetamide] | 520 nM |
| CS(=O)(=O)N1CCNC[C@@H]1CCc1c(F)cccc1NC(=O)[C@@H](N)[C@@H](c1ccc(Cl)cc1)C1CCOCC1 [Example 65, (βR)-4-chloro-N-(3-fluoro-2-{2-[(2S)-1-(methylsulfonyl)piperazin-2-yl]ethyl}phenyl)-β-(tetrahydro-2H-pyran-4-yl)-L-phenylalaninamide] | 120 nM |
| COC(=O)N[C@H](C(=O)Nc1cccc(F)c1CC[C@H]1CNCCN1S(=O)(=O)c1ccccc1)[C@@H](c1ccc(Cl)cc1)c1cncc(C(F)(F)F)c1 [Example 66, (βS)-4-chloro-N-(3-fluoro-2-{2-[(2S)-1-(phenylsulfonyl)piperazin-2-yl]ethyl}phenyl)-Nα-(methoxycarbonyl)-β-[5-(trifluoromethyl)pyridin-3-yl]-L-phenylalaninamide] | 12 nM |
| COc1ccc([C@H](c2ccc(Cl)cc2)[C@H](N)C(=O)Nc2cccc(F)c2CC[C@H]2CNCCN2S(=O)(=O)c2ccccc2)cn1 [Example 67, (βS)-4-chloro-N-(3-fluoro-2-{2-[(2S)-1-(phenylsulfonyl)piperazin-2-yl]ethyl}phenyl)-β-(6-methoxypridin-3-yl)-L-phenylalaninamide] | 5.8 nM |
| CN(CC(F)(F)F)S(=O)(=O)N1CCNC[C@@H]1CCc1c(F)cccc1NC(=O)[C@@H](N)C(c1ccc(F)cc1)c1ccc(F)cc1 [Example 68, 4-fluoro-N-[3-fluoro-2-(2-{(2S)-1-[methyl(2,2,2-trifluoroethyl)sulfamoyl]piperazin-2-yl}ethyl)phenyl]-β-(4-fluorophenyl)-L-phenylalaninamide] | 1800 nM |
| N[C@H](C(=O)Nc1cncc(F)c1CC[C@H]1CNCCN1S(=O)(=O)c1ccccc1)C1(c2ccc(Cl)cc2)CCOCC1 [Example 70, (2S)-2-amino-2-[4-(4-chlorophenyl)tetrahydro-2H-pyran-4-yl]-N-(5-fluoro-4-{2-[(2S)-1-(phenylsulfonyl)piperazin-2-yl]ethyl}pyridin-3-yl)ethanamide] | 27 nM |
| COC(=O)N[C@H](C(=O)Nc1cncc(F)c1CC[C@H]1CNCCN1S(=O)(=O)c1ccccc1)C1(c2ccc(Cl)cc2)CCOCC1 [Example 71, methyl {(1S)-1-[4-(4-chlorophenyl)tetrahydro-2H-pyran-4-yl]-2-[(5-fluoro-4-{2-[(2S)-1-(phenylsulfonyl)piperazin-2-yl]ethyl}pyridin-3-yl)amino]-2-oxoethyl} carbamate] | 11 nM |

Same assay, conditions: MT4-GFP cells infected with HIV-1 H9IIIB; 50% normal human serum; mean of at least two independent experiments; read-out: Cell-based IP

| SMILES | IC50 |
| --- | --- |
| CN(CC1CC1)S(=O)(=O)N1CCNC[C@@H]1CCc1c(F)cccc1NC(=O)[C@@H](N)C(c1ccc(F)cc1)c1ccc(F)cc1 [Example 69] | 360 nM |
